The test has as its system B cells (CD19+CD3−). Briefly: B cell activation in healthy donor PBMC, flow cytometry of surface markers / phospho ERK. The class given is cell-based, human. To be noted: human B lymphocytes. The text has this: With reference to FIGS. 2A-2E, each group of four bars from left to right represent data for: untreated donors, donors treated with human IgG1 isotype control, donors treated with BCR stimulation, and donors treated with CPI-006. The experiments for FIGS. 2A-2E are based on healthy donor PBMC treated overnight with flow cytometry analysis of surface markers on B cells (CD19^POS CD3^NEG). These lymphocyte markers are consistent with activation of B cells as well as other antigen presenting cell populations. […] The bar graph legend from top to bottom is representative of the data bars from left to right. […] For FIG. 2H the bar graph legend from top to bottom is representative of the data bars from left to right. For FIG. 2I the legend from top to bottom is representative of the data from top to bottom. […] For each group of four bars, the legend from top to bottom are representative of the bars from left to right.
PBMC were isolated from healthy donors and incubated with bead-bound anti-IgM, CPI-006 (10 μg/mL), or human IgG1 isotype control (10 μg/mL) overnight. Flow cytometry analysis was performed with gating on B cells (CD19+CD3−) and mean fluorescence intensity (MFI) was reported for staining with antibodies to the cell surface markers CD69, CD83, and CD25, as shown in FIGS. 2A-2C. PBMC were isolated from healthy donors and incubated with CPI-006, CPI-016, human IgG1 isotype control, and anti-human CD73 antibody, clone AD2 (available from Bio-Rad Antibodies) over a range of concentrations from about 0.1 μg/mL to more than 10 μg/mL. Flow cytometry analysis was performed with gating on B cells (CD19+CD3−) and mean fluorescence intensity (MFI) is reported for antibody staining of CD69, as shown in FIG. 2F. PBMC were isolated from healthy donors and incubated overnight with bead-bound anti-IgM or CPI-006 (1 μg/mL)+/−BTK inhibitor, ibrutinib (100 nM). Flow cytometry analysis was performed with gating on B cells (CD19+CD3−) and mean fluorescence intensity (MFI) is reported for antibody staining of CD69 and CD83, as shown in FIG. 2G. PBMC were isolated from healthy donors and incubated overnight with APCP (1 μM) or CPI-006 (1 μg/mL)+/−NECA (5′-N-ethylcarboxamidoadenosine). Flow cytometry analysis was performed with gating on B cells (CD19+CD3−) and mean fluorescence intensity (MFI) is reported for antibody staining of CD69, as shown in FIGS. 2H-2I. PBMC were isolated from healthy donors and incubated with the indicated treatments for 15 minutes. Flow cytometry analysis was performed with gating on the indicated cell populations and staining of phospho ERK was evaluated, as shown in FIG. 2J.
On the technique in general: Flow cytometry measures light scatter and fluorescence of single cells or particles in a stream.

From patent US20220242963A1, “B-CELL ACTIVATING CD73 ANTIBODIES” (CORVUS PHARMACEUTICALS, INC., priority 2018, published 2022) come the findings set out here.

“MEDI9447: anti-CD73 antibody described by Hay CM et al., Oncoimmunology 2016 [reference compound]”: the “direct B cell activation” value was “do not show this effect”.
